One may read the MIC as the lowest concentration that inhibits growth of the organism. Broadly, the IC50 is the concentration at which inhibition is half-maximal. Read a low IC50 as higher potency.

Data set [1] relates to Staphylococcus aureus ATCC 29213. Also noted: method as in PMID 23884130. The note with it: previous study; cited from earlier work.
Data set [2] deals with methicillin-resistant Staphylococcus aureus SA 3202. More on the design: method as in PMID 23884130. The note with it: previous study, all the MRSA strains; cited from earlier work.
Details of data set [3]: method as in PMID 23884130. The note with it: 3-hydroxynaphthalene-2-carboxanilide series; cited from earlier work.
The test system of data set [4] is methicillin-resistant Staphylococcus aureus SA 630. More on the design: method as in PMID 23884130. The note with it: previous study, all the MRSA strains; cited from earlier work.
For data set [5], the system named is methicillin-resistant Staphylococcus aureus (MRSA) 63718. Also noted: method as in PMID 23884130. The conditions noted are these: previous study, all the MRSA strains; cited from earlier work.
Data set [6] relates to M. smegmatis ATCC 700084. Description: In vitro antimycobacterial evaluation (broth dilution MIC). It is filed as cell-based, Mycobacterium smegmatis. The conditions noted are these: Mycolicibacterium smegmatis, ATCC700084, 72 h; M. smegmatis ATCC 700084, 3 days, 37 °C. (In general: Broth dilution looks for growth in wells or tubes with falling amounts of substance.)
Data set [7] deals with Mycobacterium marinum CAMP 5644. The description is as above. It is filed as cell-based. The note with it: for MIC: Mycobacterium marinum, CAMP5644, 504 h, M. marinum CAMP 5644, 21 days, 28 °C.
In data set [8] the test system is spinach chloroplasts (photosystem II). The data set can be described thus: Chlorophyll a and aromatic amino acids fluorescence in spinach chloroplasts. It is filed as biochemical, Spinacia oleracea L. Here is the method: The fluorescence emission spectra of chlorophyll a (Chla) and aromatic amino acids (AAA) in spinach chloroplasts were recorded on fluorescence spectrophotometer F-2000 (Hitachi, Tokyo, Japan) using excitation wavelength λex = 436 nm for monitoring fluorescence of Chla and λex = 275 nm for monitoring AAA fluorescence, excitation slit 20 nm and emission slit 10 nm. The samples were kept in the dark for 2 min before measuring. The phosphate buffer used for dilution of the chloroplast suspension was the same as described above. Due to low aqueous solubility the compounds were added to chloroplast suspension in DMSO solution. The DMSO concentration in all samples was the same as in the control (10%). The chlorophyll concentration in chloroplast suspension was 10 mg/L.

In data set [9] the test system is Mycobacterium avium subsp. paratuberculosis (CIT03). Description: In vitro antimycobacterial evaluation (alamarBlue MIC). It is filed as cell-based. The note with it: 264 h, M. avium paratuberculosis CIT03, 11 days, 37 °C. As for the experimental part:
A well characterised clinical isolate of Mycobacterium avium subsp. paratuberculosis (CIT03) was grown in Middlebrook broth (MB), supplemented with Oleic-Albumin-Dextrose-Catalase supplement (OADC, Becton, Dickinson & Comp., Franklin Lakes, NJ, USA) and mycobactin J (2 µg/mL). Identification of this isolate was performed using biochemical and molecular protocols. At log phase growth, a culture sample (10 mL) was centrifuged at 15,000 rpm/20 min using a bench top centrifuge (Model CR 4-12, Jouan Inc., Winchester, VA, USA). Following removal of the supernatant, the pellet was washed in fresh Middlebrook 7H9GC broth and re-suspended in fresh supplemented MB (10 mL). The turbidity was adjusted to match McFarland standard No. 1 (3 × 10^8 cfu) with MB broth. A further 1:20 dilution of the culture was then performed in MB broth. The antimicrobial susceptibility of the mycobacterial species was investigated in a 96-well plate format. In these experiments, sterile deionised water (300 µL) was added to all outer-perimeter wells of the plates to minimize evaporation of the medium in the test wells during incubation. Each evaluated compound (100 µL) was incubated with each of the mycobacterial species (100 µL). Dilutions of each compound were prepared in duplicate. For all synthesized compounds, final concentrations ranged from 1,000 µg/mL to 8 µg/mL. All compounds were prepared in DMSO and subsequent dilutions were made in supplemented MB. The plates were sealed with parafilm and incubated at 37 °C, for 11 days in the case of M. avium paratuberculosis. Following incubation, a 10% addition of alamarBlue (AbD Serotec, Kidlington, UK) was mixed into each well and readings at 570 nm and 600 nm were taken, initially for background subtraction and subsequently after 24 h re-incubation. The background subtraction is necessary for strongly coloured compounds, where the colour may interfere with the interpretation of any colour change. For non-interfering compounds, a blue colour in the well was interpreted as an absence of growth and a pink colour was scored as growth. The minimum inhibitory concentrations (MICs) were initially defined as the lowest concentration which prevented a visual colour change from blue to pink.
The MICs were defined as the lowest concentration of the compound at which no visible bacterial growth was observed. The MIC value is routinely and widely used in bacterial assays and is a standard detection limit according to the Clinical and Laboratory Standards Institute (CLSI). Isoniazid (Sigma-Aldrich) was used as reference antimycobacterial drug.
Background: Resazurin is reduced to fluorescent resorufin, in cell work by metabolically active cells.

Data set [10] relates to human monocytic leukemia THP-1 cells. The data set can be described thus: In vitro cytotoxicity assay (LDH). It is filed as cell-based. The conditions noted are these: treatment with 20 µmol/L, 24 h. Here is the method:
Human monocytic leukemia THP-1 cells were obtained from the European Collection of Cell Cultures (ECACC, Salisbury, UK; Methods of characterization: DNA Fingerprinting (Multilocus probes) and isoenzyme analysis). These cells were routinely cultured in RPMI 1640 (Lonza, Verviers, Belgium) medium supplemented with 10% fetal bovine serum (FBS, Sigma-Aldrich), 2% L-glutamine, 1% penicillin and streptomycin (Lonza, Verviers, Belgium) at 37 °C with 5% CO2. Cells were passaged at approximately 1 week intervals. Cells were routinely tested for the absence of mycoplasma (Hoechst 33258 staining method). The tested compounds were dissolved in DMSO (Sigma-Aldrich) and added in five increasing concentrations to the cell suspension in the culture medium. The maximum concentration of DMSO in the assays never exceeded 0.1%. Subsequently, the cells were incubated for 24 h at 37 °C with 5% CO2 to various compound concentrations ranging from 0.37 to 20 μmol/L in RPMI 1640 medium. Cell toxicity was determined using a Cytotoxicity Detection Kit^PLUS Lactate dehydrogenase (LDH) assay kit (Roche Diagnostics, Mannheim, Germany) according to the manufacturer’s instructions, as described previously. […] All data were evaluated using GraphPad Prism 5.00 software (GraphPad Software, San Diego, CA, USA).

The test system of data set [11] is photosynthetic electron transport (PET) in spinach chloroplasts. The data set can be described thus: Inhibition of photosynthetic electron transport (PET) in spinach chloroplasts. It is filed as biochemical, Spinacia oleracea L. The note with it: DCPIP photoreduction. Here is the method:
Chloroplasts were prepared from spinach (Spinacia oleracea L.) according to Masarovicova and Kralova. The inhibition of photosynthetic electron transport (PET) in spinach chloroplasts was determined spectrophotometrically (Genesys 6, Thermo Electron Scientific Instruments, Madison, WI, USA), using an artificial electron acceptor 2,6-dichlorophenol-indophenol (DCPIP) according to Kralova et al., and the rate of photosynthetic electron transport was monitored as a photoreduction of DCPIP. The measurements were carried out in phosphate buffer (0.02 mol/L, pH 7.2) containing sucrose (0.4 mol/L), MgCl2 (0.005 mol/L) and NaCl (0.015 mol/L). The chlorophyll content was 30 mg/L in these experiments and the samples were irradiated (~100 W/m^2 with 10 cm distance) with a halogen lamp (250 W) using a 4 cm water filter to prevent warming of the samples (suspension temperature 22 °C). The studied compounds were dissolved in DMSO due to their limited water solubility. […] The inhibitory efficiency of the studied compounds was expressed by IC50 values, i.e., by molar concentration of the compounds causing 50% decrease in the oxygen evolution rate relative to the untreated control.

The nature of data set [12]: Lipophilicity determination by RP-HPLC (capacity factor log k). It is filed as physicochemical. The conditions noted are these: isocratic, MeOH 60%/H2O 40%, C18. As for the experimental part:
A HPLC system Agilent 1200 equipped with DAD detector (Agilent, Santa Clara, CA, USA) was used. A chromatographic column Symmetry® C18 5 μm, 4.6 × 250 mm, Part No. WAT054275, (Waters Corp., Milford, MA, USA) was used. The HPLC separation process was monitored and evaluated by EZChrom Elite software ver. 3.3.2 (Agilent). Isocratic elution by a mixture of MeOH p.a. (60%) and H2O-HPLC Mili-Q grade (40%) as a mobile phase was used. The total flow of the column was 1.0 mL/min, injection 20 μL, column temperature 40 °C and sample temperature 10 °C. The detection wavelength 210 nm was chosen. The KI methanolic solution was used for the dead time (tD) determination. Retention times (tR) were measured in minutes. The capacity factors k were calculated according to formula k = (tR − tD)/tD, where tR is the retention time of the solute, whereas tD denotes the dead time obtained using an unretained analyte. Log k, calculated from the capacity factor k, is used as the lipophilicity index converted to log P scale.

The subject of data set [13] is M. kansasii DSM 44162. Description: In vitro antimycobacterial evaluation (broth dilution MIC). It is filed as cell-based. The note with it: Mycobacterium kansasii, DSM44162, 168 h; M. kansasii DSM 44162, 7 days, 37 °C.
Data set [14] has as its system methicillin-resistant Staphylococcus aureus SA 3202. Description: In vitro antibacterial susceptibility testing (broth dilution MIC). It is filed as cell-based. The conditions noted are these: MRSA, clinical isolate SA 3202, 24 h, 37 °C, read-out: MIC MRSA 3202. Here is the method: (§1) The synthesized compounds were evaluated for in vitro antibacterial activity against representatives of multidrug-resistant bacteria, clinical isolates of methicillin-resistant Staphylococcus aureus (MRSA) 63718, SA 630 and SA 3202 that were obtained from the National Institute of Public Health, Prague, Czech Republic. Staphylococcus aureus ATCC 29213 was used as a reference and quality control strain. Ampicillin (Sigma-Aldrich) was used as the standard. Prior to testing, each strain was passaged onto nutrient agar (Oxoid, Hampshire, UK) with 5% of bovine blood, and bacterial inocula were prepared by suspending a small portion of bacterial colony in sterile phosphate buffered saline (pH 7.2–7.3). The cell density was adjusted to 0.5 McFarland units using a densitometer (Densi-La-Meter, LIAP, Riga, Latvia). The final inoculum was made by 1:20 dilution of the suspension with the Mueller-Hinton broth (MH broth). […] The final concentrations of the evaluated compounds ranging from 256 μg/mL to 0.008 μg/mL. The broth dilution micro-method modified according to NCCLS guidelines in MH broth was used to determine the minimum inhibitory concentration (MIC). Drug-free controls, sterility controls and controls consisted of MH broth and DMSO alone were included. The determination of results was performed visually after 24 h of static incubation in the darkness at 37 °C in an aerobic atmosphere. The MICs were defined as the lowest concentration of the compound at which no visible bacterial growth was observed.

The test system of data set [15] is methicillin-resistant Staphylococcus aureus SA 630. The data set is described as above. It is filed as cell-based. The note with it: MRSA, clinical isolate SA 630, 24 h, 37 °C. Here is the method: as §1
The test system of data set [16] is human monocytic leukemia THP-1 cells. The conditions noted are these: assessed in this line formerly; cited from earlier work.

Values after ≈ are worked out from the molar mass of the structure shown. Where two headings read alike, the source gives them in different places.

For `COc1ccccc1NC(=O)c1cc2ccccc2cc1O` [3-hydroxy-N-(2-methoxyphenyl)naphthalene-2-carboxamide], the “MIC against S. aureus” value in [1] was 55.0 µM (≈ 16.1 µg/mL). The “MIC against MRSA strains (SA 3202)” value in data set [2] is 55.0 µM (≈ 16.1 µg/mL). The log k in data set [3] is listed as 0.69. For the same compound, the “MIC against MRSA strains (SA 630)” value in data set [4] was 55.0 µM (≈ 16.1 µg/mL). Also, the “MIC against MRSA strains (MRSA 63718)” value in data set [5] was 55.0 µM (≈ 16.1 µg/mL).
Consider `O=C(c1cc(O)cc2ccccc12)N(c1ccccc1)c1ccccc1` [3-hydroxy-N-phenylnaphthalene-1-carboxanilide], for which the log k in data set [3] is given as 0.6310.
Turning to `O=C(Nc1ccccc1)c1c(O)ccc2ccccc12` [Compound 1, 2-Hydroxy-N-phenylnaphthalene-1-carboxamide], the MIC in data set [6] came out at 486 µM (≈ 128 µg/mL); in data set [7], 60.7 µM (≈ 16 µg/mL); in data set [9] it was 950 µM (≈ 250 µg/mL); in data set [13], 15.2 µM (≈ 4 µg/mL). In addition, the “aromatic amino acids (AAA) fluorescence at 334 nm” value in data set [8] (c = 0.012-0.117 mmol/L, λex 275 nm) is “strong decline”. The “chlorophyll a fluorescence emission band at 686 nm” value in data set [8] (c = 0.059-0.468 mmol/L, λex 436 nm) was “decreased intensity”. Further, the “lethal effect on THP-1 cells” value in data set [10] was “did not lead to significant lethal effects”. Further, half-maximal inhibition in data set [11] (IC50) required 28.9 µM. In data set [12], this compound yielded a log k of 1.3016.
Take `O=C(Nc1ccccc1[N+](=O)[O-])c1c(O)ccc2ccccc12` [Compound 8a, 2-Hydroxy-N-(2-nitrophenyl)naphthalene-1-carboxamide]: the MIC in [7] stood at 104 µM (≈ 32.1 µg/mL); in data set [9] it was 195 µM (≈ 60.1 µg/mL); in data set [13], 51.9 µM (≈ 16 µg/mL); in [14], 52 µM (≈ 16 µg/mL); in data set [15], 104 µM (≈ 32.1 µg/mL). For the same compound, the “lethal effect on THP-1 cells” value in [10] is “did not lead to significant lethal effects”. Further, in [11], it took 121 µM to reach half-maximal inhibition (IC50). This compound had a log k in data set [12] of 0.8501.
With `O=C(Nc1cccc([N+](=O)[O-])c1)c1c(O)ccc2ccccc12` [Compound 8b, 2-Hydroxy-N-(3-nitrophenyl)naphthalene-1-carboxamide], the MIC in data set [7] is ~52 µM (≈ 16 µg/mL); in data set [9] it was 405 µM (≈ 125 µg/mL); in data set [13] it was 104 µM (≈ 32.1 µg/mL). For the same compound, the “fold higher activity against M. marinum than isoniazid” value in data set [7] (ratio of MIC to isoniazid) is listed as “about 9 fold”. The “lethal effect on THP-1 cells” value in [10] was “did not lead to significant lethal effects”. Moreover, the IC50 in data set [11] stood at 86.4 µM. The log k in data set [12] turned out to be 0.9187.
As for `CC[C@@]1(O)C(=O)OCc2c1cc1n(c2=O)Cc2cc3ccccc3nc2-1` [camptothecin], the LD50 in [16] is given as 0.16 ± 0.07 µmol/L.
